Test results taken from patent publication USRE38962E1, “Diphenyl-triazole derivatives and their use as anti-gestative immuno-suppressant and anti-tumoral agents” (Geange Ltd., priority 1997, dated 2006).
Marks after values point to notes of the source that are not given here.

Legend:
S.D. Rats = test: Pregnancy termination activity in S.D. rats after a single subcutaneous injection at day 7 of gestation; type: in vivo, Sprague Dawley rats; conditions: single subcutaneous injection on day 7 of gestation; for ED50: Rattus norvegicus, sc, autopsy day 16, read-out: ED50 (dose terminating pregnancy, absence of live foetuses, in 50% of treated animals); for ED50 (dose terminating pregnancy in 50% of treated animals): autopsy day 16
Experimental: In particular, female Sprague Dawley rats weighing 200-230 g. were mated and the presence of sperm was detected, was considered day one of pregnancy.
Pregnancy was later confirmed at the time of autopsy by the presence of implantation sites in the uterus.
Test compounds dissolved in sesame oil containing 20% benzyl benzoate (or suspended if insoluble), were administered subcutaneously, in a single injection, on day 7 of gestation. The animals were then autopsied on day 16 of pregnancy and the uteri were examined for evidence of pregnancy (implantation sites, foetal resorption or live foetuses), haemorrhage, and evidence of abnormalities of the uterus, placenta or foetuses, for reference see G. Galliani et al. Contraception, 23, 163-180 (198).
These values identify the dose levels which terminate pregnancy (absence of live foetuses) in 50% of the treated animals.

human chorio-carcinoma = test: Growth of human chorio-carcinoma transplanted into nude mice; type: in vivo
Beagle bitches = test: Contragestational effect in Beagle bitches after a single intramuscular dose; type: in vivo; conditions: for Pregnancy arrest (%): single i.m. 5 mg/kg (11.1 μmoles/kg)
Experimental: The compound was given intramuscularly in one depot site of the thigh muscle of the right hind leg dissolved in sesame oil at the dose of 5 mg/kg (11.1 μmoles/kg , […], 0.2 mL/kg). The anti-gestative effectiveness was ascertained by exploratory laparatomy examining uterine horns where the presence of live or dead foetuses was deduced from the dimension and appearance of each uterine swelling, for methodological reference see G. Galliani et al., J. Small Animal Practice, 25, 211-222 (1984).

[1] = system: Sheep Red Blood Cells (SRBC); test: IgG antibody response to SRBC (indirect plaque forming cells in spleen); type: in vivo, B6D2F1 mice; conditions: dosing day 0, 2.15 μmoles/Kg/day; vehicle 24 + 3
Experimental: (§1) In detail, the Antibody Response to Sheep Red Blood Cells (SRBC) and to Lipo-polysaccharide (LPS), was studied in B6D2F1 mice injected intravenously 10^8 SRBC (day 0). Direct (IgM) and indirect (IgG) plaque forming cells (PFC) were evaluated in the spleen 4 and 10 days later, Jerne et al. Science 140, 405 (1963) and Dresser and Wortis, Nature, 208, 859(1965).
(§2) Indirect PCF were developed with rabbit anti-serum to mouse gamma globulin. B6D2F1 mice were immunised with 20 μg LPS intra-peritoneally. Four days later, PCF were determined in the spleen by SRBC coated with LPS, Moller, Nature, 207, 1166(1965).

[2] = system: grafts of skin from C3H (H-2^k) donor mice; test: Skin graft survival time (C3H donor onto C57B1/6 recipient); type: in vivo, C57B1/6 mice; conditions: dosing days −1, 7, 17.20 μmols/Kg/day; vehicle 10.7 + 0.4
Experimental: For the Skin Grafting, fitted pinch, grafts of skin from C3H (H-2^k) donor mice were transplanted onto C57B1/6 (H-2^b) recipient mice (Mistrello et al,. 1984) Bandages were removed 7 days later and graft were scored daily by microscopy. Rejection was recorded when no viable epidermis remained. The median survival time (MST) of the grafts, measured as days, was calculated according to Litchfield (1949).

Acute toxicity studies = conditions: in vivo
Experimental: Acute toxicity studies did show as the lethal doses of compounds (VI), LD50>500 mg/kg, are of three order of magnitude higher than those anti-gestative.

[3] = system: Sheep Red Blood Cells (SRBC); test: IgM antibody response to SRBC (direct plaque forming cells in spleen); type: in vivo, B6D2F1 mice; conditions: antigen SRBC, dosing day 0, 8.60 μmoles/Kg/day; vehicle 124 + 18; p < 0.01
Experimental: as §1

[4] = system: Lipo-polysaccharide (LPS); test: IgM antibody response to LPS (plaque forming cells in spleen); type: in vivo, B6D2F1 mice; conditions: antigen LPS, dosing day 0, 8.60 μmoles/Kg/day; vehicle 10 + 2; p < 0.01
Experimental: as §1, §2

SRBC = test: Delayed type hypersensitivity (DTH), footpad swelling; type: in vivo, C57B1/6 mice; conditions: dosing day 0, 3.60 μmoles/Kg/day; vehicle 11.4 + 3.7
Experimental: Delayed Type hypersensitivity (DTH), was carried out in C57B1/6 mice administered subcutaneously 2×10^8 SRBC emulsified in complete Freund's adjuvant. Ten days later an eliciting dose of 10^8 SRBC was inoculated into a footpad. The DTH reaction was recorded 24 hours later by measuring the footpad swelling (Kerckhaert et al, i Cell Immunology, 29, 232, (1977).

In the case of `CCCCOC(=O)OCc1ccccc1-c1n[nH]c(-c2cccc(OCC)c2)n1` [(XIV)], the ED50 (S.D. Rats) is reported as 8 mg/kg and the “ED50 (dose terminating pregnancy in 50% of treated animals)” value (S.D. Rats) is reported as 20.3 µmol/kg.

For `CCCCCCOC(=O)OCc1ccccc1-c1n[nH]c(-c2cccc(OCC)c2)n1` [(XVI)], the ED50 (S.D. Rats) was 5 mg/kg and the “ED50 (dose terminating pregnancy in 50% of treated animals)” value (S.D. Rats) was 11.8 µmol/kg.

In the case of `CCOc1cccc(-c2n[nH]c(-c3ccccc3CO)n2)c1` [D, 5-(2-Hydroxymethylphenyl)-3-(3-ethoxy-phenyl)-1H-1,2,4-triazole, reference compound], the ED50 (S.D. Rats) is reported as 16 mg/kg and the “ED50 (dose terminating pregnancy in 50% of treated animals)” value (S.D. Rats) is reported as 54.6 µmol/kg.

In the case of `CCCCCCCCOC(=O)OCc1ccccc1-c1n[nH]c(-c2cccc(OCC)c2)n1` [(VI)], the “Potency compared with methotrexate” value (human chorio-carcinoma; human chorio-carcinoma transplanted into nude mice) is reported as “even higher than that displayed by methotrexate”, the “Inhibition of the growth of human chorio-carcinoma” value (human chorio-carcinoma; transplanted into nude mice) is reported as “highly effective” and the “Pregnancy arrest (%)” value (Beagle bitches; administered day 15 of gestation) is reported as 80%. The “Pregnancy arrest (%)” value (Beagle bitches; administered day 20 of gestation) was 100%, the “Pregnancy arrest (%)” value (Beagle bitches; administered day 25 of gestation) was 100% and the “Tolerability” value (Beagle bitches; single intramuscular dose) was “very well tolerated”. For the same compound, the “Anti-gestative effectiveness” value (Beagle bitches; single intramuscular dose between day of mating and 25th day of gestation) was “highly effective”, the “PFC/SPLEEN.10^−3 (mean + S.D.), IgG response to SRBC” value [1] was 3 + 3* PFC/SPLEEN.10^−3 and the “MST, days (mean ± S. D.), skin graft median survival time” value [2] was 15.1 + 0.6* days. The LD50 (Acute toxicity studies) was > 500 mg/kg, the “PCF/spleen.10^−3 (mean = S.D.), IgM response” value [3] was 12 + 3* PCF/spleen.10^−3 and the ED50 (S.D. Rats) was 2 mg/kg. For the same compound, the “ED50 (dose terminating pregnancy in 50% of treated animals)” value (S.D. Rats) was 4.4 µmol/kg, the “PCF/spleen.10^−3 (mean = S.D.), IgM response” value [4] was 3 + 1* PCF/spleen.10^−3 and the “FOOTPAD SWELLING UNITS (Mean + S.D.), DTH” value (SRBC) was 5.2 + 1.2** UNITS.

For `CCOC(=O)OCc1ccccc1-c1n[nH]c(-c2cccc(OCC)c2)n1` [(XV)], the ED50 (S.D. Rats) was 15 mg/kg and the “ED50 (dose terminating pregnancy in 50% of treated animals)” value (S.D. Rats) was 27.2 µmol/kg.
